Source: PubChem BioAssay (NCI)
Values joined by “and” are separate entries in the source; they are usually repeats but may differ in a detail not shown here. Equal values may be shown once.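 How tested: cells in 96-well plates exposed to compound for 48 hours at five concentrations. TGI: concentration producing complete growth inhibition.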

Legend:
Test in all cases: NCI tumour cell line growth inhibition, 48 h
[1] = system: XF 498 CNS
[2] = system: SNB-78 CNS
[3] = system: DMS 114 small cell lung
[4] = system: LXFL 529 NSCLC
[5] = system: P388 leukemia
[6] = system: P388/ADR leukemia
[7] = system: SN12K1 renal
[8] = system: HOP-18 NSCLC
[9] = system: RXF-631 renal

Row | Structure (SMILES) | TGI [1] | TGI [2] | TGI [3] | TGI [4] | TGI [5] | TGI [6] | TGI [7] | TGI [8] | TGI [9]
1 | Cc1c(C(=O)CSc2nc3ccccc3c(=O)n2-c2ccccc2)c(=O)n(-c2ccccc2)n1C | > 100 µM | > 100 µM | > 100 µM |  |  |  |  |  | 
2 | COCOc1ccc(Cn2c(=O)n(C)c(=O)c3c2ncn3C)cc1[N+](=O)[O-] |  | > 100 µM | > 100 µM | > 100 µM |  |  |  |  | 
3 | O=C(NC(Cc1ccc(I)cc1)C(=O)O)c1ccc(I)cc1 (configuration not stated) | > 100 µM | > 100 µM | > 100 µM |  | > 100 µM | > 100 µM | > 100 µM | > 100 µM | 
4 | CC(=O)OCC1OC(n2cc([N+](=O)[O-])c(=O)[nH]c2=O)C(OC(C)=O)C(OC(C)=O)C1OC(C)=O (configuration not stated) | > 100 µM |  | > 100 µM | > 100 µM |  |  |  | > 100 µM | 
5 | CC(C(=O)n1nnc2ccccc21)N(c1ccccc1)c1ccccc1 (configuration not stated) |  | > 100 µM |  | > 100 µM |  |  |  |  | 
6 | O=S(=O)(O)c1cc2ccc1/C=C\c1ccc(cc1S(=O)(=O)O)N=Nc1ccc(c(S(=O)(=O)O)c1)/C=C\c1ccc(cc1S(=O)(=O)O)N=N2 | > 100 µM | > 100 µM |  |  | > 100 µM | > 100 µM | > 100 µM | > 100 µM | 
7 | Cc1cn(C2OC(C)(CO)C(O)C2O)c(=O)[nH]c1=O (configuration not stated) |  |  | > 100 µM | > 100 µM |  |  |  | > 100 µM | 
8 | CC[C@H]1CN2CCc3cc(OC)c(OC)cc3[C@@H]2C[C@@H]1C[C@H]1NCCc2cc(OC)c(OC)cc21 |  |  | 0.136 µM and 0.0466 µM |  |  |  |  | 0.403 µM | 
9 | Cc1cc(=O)c2c([nH]1)NS(=O)(=O)NC2=O | > 100 µM | > 100 µM |  | > 100 µM |  |  |  |  | > 100 µM
10 | CC(=O)N(C(C)=O)C1=C2c3ccccc3N(S(=O)(=O)c3ccccc3)C2n2c(=O)n(-c3ccccc3)c(=O)n2C1 (configuration not stated) |  |  |  | > 100 µM |  |  |  | 86.4 µM | 
11 | CCOC(=O)/C=C(\C)c1ccc(C)cc1C | 43.2 µM | > 100 µM | > 100 µM | 28.6 µM |  |  |  | > 100 µM | > 100 µM
12 | O=c1ccc2cc3ccc4cccc5ccc(c2o1)c3c45 | 56.8 µM | > 100 µM | > 100 µM | > 100 µM |  |  |  | > 100 µM | > 100 µM
13 | BrC/C=C/C[P+](c1ccccc1)(c1ccccc1)c1ccccc1 | 43.6 µM | > 100 µM | 84 µM | 45.1 µM |  |  |  | > 100 µM | > 100 µM
14 | O=C1C=CC(=O)N1Nc1ccc([N+](=O)[O-])cc1[N+](=O)[O-] |  | > 100 µM | > 100 µM | > 64.6 µM |  |  |  |  | 
15 | CC(=O)O[C@]12CCCCCC1C1(O)C(O)CCC[C@H]12 (some centres not stated) | > 100 µM | > 100 µM | > 100 µM | > 100 µM |  |  |  | > 100 µM | 
